Reference: paper PMC8951750, “In Vitro Anticancer and Cancer-Preventive Activity of New Triterpene Glycosides from the Far Eastern Starfish Solaster pacificus” (Marine Drugs, 2022)
Where “and” joins values, the source holds several entries; their conditions need not be identical. Equal entries are not always repeated. Where two headings read alike, the source gives them in different places.

How the values were obtained:
[1] = test system: human melanoma cells SK-MEL-2; test: Cell viability, MTS assay, SK-MEL-2; type: cell-based
Procedure: (§1) MTS assay was used to measure the cell viability of tested normal and cancer cells. Cells were seeded into 96-well plates (“Jet Biofil”, Guangzhou, China) at density of 1.0 × 10^4/200 µL for 24 h at 37 °C in a 5% CO2 incubator. Then, cell monolayer was treated either with DMSO (control) or various concentrations of the triterpene glycosides 1–9 from S. pacificus (0.1, 0.5, 2.5, 12.5, 62.5 µM) in fresh appropriate culture medium for 24 h. Subsequently, the cells were incubated with 15 µL of 3-(4,5-dimethylthiazol-2-yl)-5-(3-carboxymethoxyphenyl)-2-(4-sulfophenyl)-2H-tetrazolium (MTS reagent) (“Promega”, Madison, WI, USA) for 3 h, and the absorbance of each well was measured at 490/630 nm using Power Wave XS microplate reader (“BioTek”, Wynusky, VT, USA). The concentration at which the compounds exert half of their maximal inhibitory effect on cell viability (IC50) was calculated by the AAT-Bioquest® online calculator [39]. The selectivity index (SI) was calculated as described previously using the following formula SI = IC50 of the compounds in normal cell (JB6 Cl41)/IC50 of the same compounds in human melanoma cell lines (SK-MEL-2, SK-MEL-28, or RPMI-7951).

[2] = test system: human melanoma cells RPMI-7951; test: Cell viability, MTS assay, RPMI-7951; type: cell-based
Procedure: as §1

JB6 Cl41 cells [3] = test: Soft agar assay, UVB-induced neoplastic cell transformation; type: cell-based, mouse; details: compound 0.1 µM, UVB 0.3 J/cm^2 three times a week for 3 weeks, soft agar
Procedure: (§2) JB6 Cl41 cells (2.4 × 10^4) were exposed to epidermal growth factor (EGF) (1 ng/mL) or phorbol 12-myristate 13-acetate (TPA) (10 ng/mL) and treated either with DMSO (control) or the triterpene glycosides 1–9 from S. pacificus (0.1, 0.5, and 1 µM) in 1 mL of 0.3% basal medium Eagle (BME) agar containing 10% FBS, 2 mM L-glutamine, and 25 µg/mL gentamicin (agar mix). The cultures were maintained in a humidified atmosphere with 5% CO2 at 37 °C for 14 days, and the cell’s colonies were scored using a microscope, Motic AE 20 (XiangAn, Xiamen, China), and the ImageJ software bundled with 64-bit Java 1.8.0_112 (NIH, Bethesda, MD, USA). To determine the effect of investigated compounds on neoplastic cell transformation induced by ionizing radiation (X-ray or UVB), JB6 Cl41 cells (3 × 10^5/dish) were seeded in 60 mm dishes and cultured for 24 h at 37 °C in 5% CO2 incubator. Then, the cells were exposed to X-rays (X-ray system XPERT 80 (KUB Technologies, Inc, Milford, CT, USA)) at dose of 0.5 Gy or UVB (wavelengths below 312 nm) (Bio-Link UV irradiation system, Vilber, France) at dose of 0.3 J/cm^2 three times a week for 3 weeks. Irradiated JB6 Cl41 cells (2.4 × 10^4) were treated either with DMSO (control) or the triterpene glycosides 1–9 from S. pacificus (0.1, 0.5, and 1 µM) in 1 mL of agar mix. The cultures were maintained in a humidified atmosphere with 5% CO2 at 37 °C for 14 days, and the cell’s colonies were scored using a microscope, Motic AE 20 (XiangAn, Xiamen 361101, China), and the ImageJ software bundled with 64-bit Java 1.8.0_112 (NIH, Bethesda, MD, USA).

SK-MEL-2 cells = test: Soft agar assay, colony formation of cancer cells; type: cell-based, human; details: compound 0.1 µM, 14 days
Procedure: SK-MEL-2 cells (2.4 × 10^4) were treated either with DMSO (control) or the triterpene glycosides 1–9 from S. pacificus (0.1 µM) in 1 mL of agar mix. After 14 days, colonies of cancer cells were scored as described above.

JB6 Cl41 cells [4] = test: Soft agar assay, X-ray-induced neoplastic cell transformation; type: cell-based, mouse; details: compound 0.1 µM, X-rays 0.5 Gy three times a week for 3 weeks, soft agar; for inhibition at 0.1 µM: Mus musculus, JB6 Cl41, 504 h, read-out: inhibition of X-ray-induced cell transformation (JB6 Cl41 colonies formation)
Procedure: as §2

[5] = test system: non-cancerous mouse epidermal cells JB6 Cl41; test: Cell viability, MTS assay, JB6 Cl41; type: cell-based
Procedure: as §1

[6] = test system: Human erythrocytes (O(I)+); test: Hemolysis assay; type: cell-based; details: 1 h, 37 °C, PBS pH 7.4
Procedure: Human erythrocytes (O(I)+) were obtained from Vladivostok blood transfusion station. Erythrocytes were centrifuged with PBS (pH 7.4) for 5 min at 4 °C by 450× g on a LABOFUGE 400R (Heraeus, Hanau, Germany) centrifuge three times. Then, the residue of erythrocytes was resuspended in ice-cold PBS (pH 7.4) to a final optical density of 2.0 at 700 nm and kept on ice. For the hemolytic assay, 180 µL of erythrocyte suspension was mixed with 20 µL of Cucumarioside A2-2 (positive control) and investigated compounds at concentrations range of 0.1, 0.5, 1, 5, 10 µM in V-bottom 96-well plates. After 1 h of incubation at 37 °C, plates were centrifuged at 900× g for 10 min on an LMC-3000 (Biosan, Riga, Latvia) laboratory centrifuge. Then, we carefully selected 100 µL of supernatant and transferred it to new flat plates, respectively. Lysis of erythrocytes was determined by measuring the concentration of hemoglobin in the supernatant with a microplate photometer Multiskan FC (Thermo Fisher Scientific, Waltham, MA, USA) at 570 nm. The effective dose causing 50% of erythrocytes hemolysis (ED50) was calculated using the computer program SigmaPlot 10.0. All experiments were made in triplicate, p < 0.01.

JB6 Cl41 cells [7] = test: Soft agar assay, TPA-induced neoplastic cell transformation; type: cell-based, mouse; details: compound 0.1 µM, TPA 10 ng/mL, soft agar, 2 weeks, vs positive control; for inhibition of TPA-induced neoplastic transformation of JB6 Cl41 cells: 0.1 µM; for inhibition at 0.1 µM: Mus musculus, JB6 Cl41, 336 h, read-out: inhibition of TPA-induced neoplastic transformation of JB6 Cl41 cells
Procedure: as §2

[8] = test system: human melanoma cells SK-MEL-28; test: Cell viability, MTS assay, SK-MEL-28; type: cell-based
Procedure: as §1

JB6 Cl41 cells [9] = test: Soft agar assay, EGF-induced neoplastic cell transformation; type: cell-based, mouse; details: compound 0.1 µM, EGF 1 ng/mL, soft agar, 2 weeks, vs positive control; for inhibition of EGF-induced neoplastic transformation of JB6 Cl41 cells: 0.1 µM; for inhibition at 0.1 µM: Mus musculus, JB6 Cl41, 336 h, read-out: inhibition of EGF-induced neoplastic transformation of JB6 Cl41 cells
Procedure: as §2

[10] = MTS assay, 24 h; read-out: IC50, cell viability SK-MEL-2
[11] = MTS assay, 24 h, normal cells; read-out: IC50, cell viability JB6 Cl41
[12] = Homo sapiens, SK-MEL-2, 24 h, MTS assay, 24 h; read-out: IC50, cell viability SK-MEL-2
[13] = Homo sapiens, RPMI-7951, 24 h, MTS assay, 24 h; read-out: IC50, cell viability RPMI-7951
[14] = Homo sapiens, SK-MEL-28, 24 h, MTS assay, 24 h; read-out: IC50, cell viability SK-MEL-28

Row | SMILES | SI (selectivity index) SK-MEL-2 ([1]; IC50 JB6 Cl41 / IC50 SK-MEL-2) | IC50 [1, 10] | SI (selectivity index) RPMI-7951 ([2]; IC50 JB6 Cl41 / IC50 RPMI-7951) | inhibition of UVB-induced neoplastic cell transformation (decrease of colonies number) (JB6 Cl41 cells [3]) | decrease of colonies number of SK-MEL-2 cells (colony formation) (SK-MEL-2 cells) | IC50 [5, 11] | ED50, effective dose causing 50% of erythrocytes hemolysis [6] | inhibition of TPA-induced neoplastic transformation of JB6 Cl41 cells (JB6 Cl41 cells [7]) | SI (selectivity index) SK-MEL-28 ([8]; IC50 JB6 Cl41 / IC50 SK-MEL-28) | inhibition of EGF-induced neoplastic transformation of JB6 Cl41 cells (JB6 Cl41 cells [9]) | IC50 [1, 12] | IC50 [2, 13] | inhibition at 0.1 µM (JB6 Cl41 cells [4]) | inhibition at 0.1 µM (JB6 Cl41 cells [7]) | IC50 [8, 14] | inhibition at 0.1 µM (JB6 Cl41 cells [9]) | other results
1 | CC(=O)OC1CC2(C)C3=CCC4C(C)(C)C(OC5OCC(O)C(O)C5OC5OC(C)C(OC6OC(CO)C(O)C(O)C6O)C(O)C5OC5OCC(O)C(O)C5O)CCC4(C)C3CCC23C(=O)OC(C)(C=CC=C(C)C)C13 [Compound 5, 3β-O-{β-D-glucopyranosyl-(1→4)-[β-D-xylopyranosyl-(1→2)]-β-D-quinovopyranosyl-(1→2)-β-D-xylopyranosyl}-16β-acetoxyholosta-7,22Z,24-triene] | 0.2 | 37.3 ± 0.01 µM | 0.23 | not effective | 13% | 8.7 ± 0.2 µM | 7.02 ± 0.46 µM | 17% | 0.3 | 16% |  |  |  |  |  |  | IC50 ([2]; MTS assay, 24 h; read-out: IC50, cell viability RPMI-7951): 38 ± 0.3 µM; inhibition of X-ray-induced cell transformation (JB6 Cl41 colonies formation) (JB6 Cl41 cells [4]): less than 15%; IC50 ([8]; MTS assay, 24 h; read-out: IC50, cell viability SK-MEL-28): 25.3 ± 0.09 µM
2 | COC1C(O)COC(OC2C(O)C(COS(=O)(=O)O)OC(OC3C(C)OC(OC4C(OC5CCC6(C)C7CCC89C(=O)OC(C)(C=CC=C(C)C)C8C(OC(C)=O)CC9(C)C7=CCC6C5(C)C)OCC(O)C4O)C(O)C3O)C2O)C1O [Compound 6, 3β-O-{3-O-methyl-β-D-xylopyranosyl-(1→3)-6-O-6-sulfoxy-β-D-glucopyranosyl-(1→4)-β-D-quinovopyranosyl-(1→2)-β-D-xylopyranosyl}-16β-acetoxyholosta-7,22Z,24-triene] | 9.5 |  | 0.2 |  | 40% |  | 1.68 µM and 1.68 ± 0.14 µM | 61% | 0.8 | 44% |  |  |  |  |  |  | IC50 ([1]; read-out: IC50, cell viability SK-MEL-2; MTS assay, 24 h): 0.69 ± 0.03 µM; IC50 ([2]; read-out: IC50, cell viability RPMI-7951; MTS assay, 24 h): 32.4 ± 0.5 µM; inhibition of UVB-induced neoplastic cell transformation (decrease of colonies number) (JB6 Cl41 cells [3]; 0.1 µM): 10%; inhibition of X-ray-induced cell transformation (JB6 Cl41 colonies formation) (JB6 Cl41 cells [4]; 0.1 µM): 23%; IC50 ([5]; read-out: IC50, cell viability JB6 Cl41; MTS assay, 24 h, normal cells): 6.6 ± 0.3 µM; IC50 ([8]; read-out: IC50, cell viability SK-MEL-28; MTS assay, 24 h): 8.2 ± 0.2 µM
3 | CC(=O)OC1CC2(C)C3=CCC4C(C)(C)C(OC5OCC(O)C(O)C5OC5OC(C)C(OC6OC(CO)C(O)C(O)C6O)C(O)C5OC5OCC(O)C(O)C5O)CCC4(C)C3CCC23C(=O)OC(C)(C=CC=C(C)C)C13 [Compound 2, 3β-O-{β-D-glucopyranosyl-(1→4)-[β-D-xylopyranosyl-(1→2)]-β-D-quinovopyranosyl-(1→2)-β-D-xylopyranosyl}-16β-acetoxyholosta-7,22E,24-triene] | 0.8 |  | 0.87 | not effective | 3% | 31.5 ± 4.1 µM | 4.08 ± 0.36 µM |  | 1.0 |  | 37.6 ± 0.2 µM | 36.4 ± 0.2 µM | < 15% | 18% | 29 ± 0.02 µM | 25% | 
4 | COC1C(O)C(CO)OC(OC2C(O)C(CO)OC(OC3C(C)OC(OC4C(OC5CCC6(C)C7CCC89C(=O)OC(C)(C=CC=C(C)C)C8C(OC(C)=O)CC9(C)C7=CCC6C5(C)C)OCC(O)C4O)C(OC4OCC(O)C(O)C4O)C3O)C2O)C1O [Compound 1, 3β-O-{3-O-methyl-β-D-glucopyranosyl-(1→3)-β-D-glucopyranosyl-(1→4)-[β-D-xylopyranosyl-(1→2)]-β-D-quinovopyranosyl-(1→2)-β-D-xylopyranosyl}-16β-acetoxyholosta-7,22E,24-triene] | 9.1 | 0.7 ± 0.07 µM | 0.24 |  | 64% |  | 2.03 µM and 2.03 ± 0.19 µM |  | 0.8 |  | < 1 µM | 26.7 ± 0.1 µM | 94% | 98% | 8.4 ± 0.07 µM | 94% | inhibition at 0.1 µM (JB6 Cl41 cells [3]; Mus musculus, JB6 Cl41, light or radiation study, 504 h, read-out: inhibition of UVB-induced neoplastic cell transformation (decrease of colonies number)): 96%; IC50 ([5]; Mus musculus, JB6 Cl41, 24 h, MTS assay, 24 h, normal cells; read-out: IC50, cell viability JB6 Cl41): 6.4 ± 0.05 µM
